This passage reports TGI and GI50 results from PubChem BioAssay (NCI).

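Where inhibition never reached the appropriate level, the endpoint shown equals the highest concentration tested. Otherwise, values were interpolated linearly from a five-concentration, 48-hour dose response in 96-well plates. GI50 is the concentration that inhibits growth by half. TGI: concentration producing complete growth inhibition.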

Some test systems named below: U251 CNS; ACHN renal; 786-0 renal; CAKI-1 renal; K-562 leukemia; HCT-116 colon; SK-MEL-2 melanoma; SK-MEL-5 melanoma; TK-10 renal; MDA-MB-435.
What all share (test): NCI anticancer screen, dose series, 48 h

Turning to `CSc1nnnc2ccccc12`, the TGI in the assay with U251 CNS, in the assay with ACHN renal, with 786-0 renal, in the assay with CAKI-1 renal, in the assay on K-562 leukemia and in the assay with HCT-116 colon was more than 100 µM in each case. The TGI with SK-MEL-2 melanoma, in the assay with SK-MEL-5 melanoma, with TK-10 renal and in the assay on MDA-MB-435 was more than 100 µM throughout.
Take `CCOC(=O)c1ccc2nc3n(c2c1)C(c1c(F)cccc1F)SC3` (stereo unspecified): the TGI with U251 CNS, with ACHN renal, with 786-0 renal, in the assay with CAKI-1 renal, in the assay on K-562 leukemia and in the assay on HCT-116 colon was more than 100 µM each time. The TGI in the assay with SK-MEL-2 melanoma, in the assay on SK-MEL-5 melanoma, in the assay with TK-10 renal and in the assay with MDA-MB-435 was more than 100 µM throughout.
For `COP(=O)(CP(=O)(OC)OCCC(C)CCC=C(C)C)OC` (stereo unspecified), the TGI is 87.8 µM in the assay with U251 CNS; more than 100 µM with ACHN renal; more than 100 µM in the assay on 786-0 renal; more than 100 µM in the assay with CAKI-1 renal; more than 100 µM with K-562 leukemia; more than 100 µM in the assay with HCT-116 colon. Also, the TGI in the assay on SK-MEL-2 melanoma, with SK-MEL-5 melanoma, with TK-10 renal and in the assay on MDA-MB-435 was more than 100 µM in each case.
Consider `C=CC(=O)N1C/C(=C\c2ccc(OC)cc2)C(=O)/C(=C/c2ccc(OC)cc2)C1`, for which the TGI in the assay on U251 CNS is 6.43 µM; with ACHN renal, 3.47 µM; with 786-0 renal it was 4.17 µM; in the assay with CAKI-1 renal it was 11.7 µM; in the assay on K-562 leukemia it was more than 100 µM; in the assay on HCT-116 colon it was 0.686 µM. For the same molecule, the TGI with SK-MEL-2 melanoma is 8.57 µM; in the assay with SK-MEL-5 melanoma, more than 20.4 µM; in the assay with TK-10 renal it was more than 36.1 µM; with MDA-MB-435, 7.76 µM.
Regarding `CC1(C)CCCCCC(O)C(O)CCC(C)(C)C1=O` (stereo unspecified), the TGI in the assay with U251 CNS, with ACHN renal, in the assay with 786-0 renal, in the assay on CAKI-1 renal, in the assay with K-562 leukemia and with HCT-116 colon was more than 100 µM in each case. The TGI in the assay on SK-MEL-2 melanoma, in the assay on SK-MEL-5 melanoma, in the assay on TK-10 renal and in the assay on MDA-MB-435 was more than 100 µM in each case.
In the case of `CC1(C)CCC2=C(O1)c1ccccc1C(=Nc1ccc([N+](=O)[O-])cc1)C2=O`, the TGI with U251 CNS is 28.9 µM; with ACHN renal, 25.5 µM; with 786-0 renal, 34.1 µM; in the assay with CAKI-1 renal it was 32.2 µM; with K-562 leukemia it was more than 100 µM; with HCT-116 colon, 19.9 µM. Further, the TGI with SK-MEL-2 melanoma worked out at 32.8 µM; in the assay with SK-MEL-5 melanoma, 30.3 µM; with TK-10 renal it was 32.6 µM; in the assay on MDA-MB-435, 29.2 µM. For the same molecule, the GI50 with MDA-MB-435 is 15.8 µM.
For `CCCCCCCCCCCC(=O)N(CCCCCCCCC)CC(O)C(O)C(OC1OC(CO)C(O)C(O)C1O)C(O)CO` (stereo unspecified), the TGI came out at 35.5 µM in the assay on U251 CNS; 32.1 µM with ACHN renal; 32.8 µM with 786-0 renal; 35.5 µM with CAKI-1 renal; 50.2 µM in the assay on K-562 leukemia; 32.8 µM in the assay on HCT-116 colon. The TGI in the assay on SK-MEL-2 melanoma turned out to be 43.9 µM; in the assay with SK-MEL-5 melanoma, 35 µM; in the assay on TK-10 renal it was 29.8 µM; in the assay on MDA-MB-435 it was 32 µM.
For `N=C(N)SCc1nc(-c2ccc(Cl)cc2)no1`, the TGI turned out to be 78.8 µM with U251 CNS; 27.5 µM with ACHN renal; 29.3 µM with 786-0 renal; 27.4 µM with CAKI-1 renal; 41.9 µM with K-562 leukemia; 31.9 µM in the assay with HCT-116 colon. Also, the TGI in the assay with SK-MEL-2 melanoma is 41.7 µM; in the assay with SK-MEL-5 melanoma, more than 100 µM; in the assay on TK-10 renal it was 40.8 µM; with MDA-MB-435, 28.4 µM.
Turning to `CCN(CC)/N=C\c1c2ccccc2cc2ccccc12`, the TGI with U251 CNS, in the assay on ACHN renal, in the assay on 786-0 renal, in the assay with CAKI-1 renal, in the assay on K-562 leukemia and in the assay with HCT-116 colon was more than 100 µM throughout. For the same molecule, the TGI is 61.9 µM in the assay on SK-MEL-2 melanoma, 40.2 µM with SK-MEL-5 melanoma, more than 100 µM in the assay on TK-10 renal and more than 100 µM with MDA-MB-435.
For `COc1cc2nc(-c3cccs3)nc(Nc3ccccc3C(=O)NN)c2cc1OC`, the TGI in the assay on U251 CNS, in the assay on ACHN renal, in the assay with 786-0 renal, in the assay on CAKI-1 renal, in the assay on K-562 leukemia and with HCT-116 colon was more than 100 µM each time. The TGI in the assay on SK-MEL-2 melanoma, with SK-MEL-5 melanoma, with TK-10 renal and in the assay with MDA-MB-435 was more than 100 µM throughout.
Turning to `Clc1nc2nc(N3CCNCC3)nc(N3CCCC3)c2[nH]1`, the TGI in the assay on U251 CNS is 31.8 µM; in the assay on ACHN renal it was 37.7 µM; in the assay on 786-0 renal, 32.1 µM; in the assay on CAKI-1 renal, more than 100 µM; in the assay with K-562 leukemia, 52.7 µM; with HCT-116 colon, 29.7 µM. Moreover, the TGI in the assay with SK-MEL-2 melanoma was 35.4 µM; in the assay with SK-MEL-5 melanoma, 28.8 µM; in the assay with TK-10 renal, more than 100 µM; in the assay on MDA-MB-435, 34.5 µM.
Turning to `O/N=C1\C/C(=N\O)c2c(Br)sc(Br)c21`, the TGI in the assay on U251 CNS was more than 100 µM; in the assay with ACHN renal it was more than 100 µM; in the assay with 786-0 renal it was more than 100 µM; in the assay with CAKI-1 renal it was 60 µM; in the assay with K-562 leukemia it was more than 100 µM; in the assay with HCT-116 colon, more than 100 µM. Moreover, the TGI in the assay on SK-MEL-2 melanoma, in the assay with SK-MEL-5 melanoma, with TK-10 renal and in the assay on MDA-MB-435 was more than 100 µM in each case.
With `CCCCCc1cc2cc3c(c(O)c2c(=O)[nH]1)C1(CCC3)C(=O)c2c(O)ccc(O)c2C1=O`, the TGI in the assay with U251 CNS, in the assay with ACHN renal, with 786-0 renal, in the assay on CAKI-1 renal, in the assay on K-562 leukemia and with HCT-116 colon was more than 100 µM each time. In addition, the TGI with SK-MEL-2 melanoma, with SK-MEL-5 melanoma, in the assay with TK-10 renal and in the assay on MDA-MB-435 was more than 100 µM in each case.
